The text below walks through data of patent US12252493B2, “Imidazo[1,2-c]pyrimidine derivatives as PRC2 inhibitors for treating cancer” (Mirati Therapeutics, Inc., priority 2019, dated 2025).

Assay [1] concerns PRC2-mediated histone H3 methylation (H3 Lys27 trimethylation) in Pfeiffer cells expressing mutant EZH2 (A677G). The assay can be described thus: Tri-Methyl Histone H3 (Lys 27) sandwich ELISA in Pfeiffer cells. In kind it is cell-based, human. The note with it: read-out: IC50, Inhibition of EZH2-mediated Histone H3 Trimethylation. The text has this: The Pfeiffer cell line was established from a […] from a patient having metastatic diffuse large B-cell lymphoma (DLBCL). This cell line expresses a mutant form of the EZH2 enzyme (A677G) that results in enhanced EZH2 activity leading to increased methylation of histone H3 Lys27. Increased trimethylation of histone H3 Lys27 is believed to be implicated in tumorgenesis and poor clinical prognosis in lymphomas (McCabe et al., (2012) Nature 492:108-112).
Inhibition of PRC2-mediated histone H3 methylation by compounds of Formula (I) was measured by ELISA using a Tri-Methyl Histone H3 (Lys 27) Sandwich ELISA Kit (Cell Signaling Tech #7866C) in accordance with the manufacturer's instructions. Briefly, Pfeiffer cells were cultured in RPMI medium supplemented with 10% fetal bovine serum and 1% penicillin and 1% streptomycin in 96 well culture plates at 37° C. to a density of 8000 cells/90 μl/well and the cells were harvested. A series of 3-fold serial dilutions of each test compound of Formula (I) were prepared in RPMI medium and added to the cells at final concentrations ranging from 1 μM to 0.15 nM. The plates were incubated at 37° C. for 96 hours.
After incubation, the cells were pelleted by centrifugation in a pre-cooled 4° C. rotor at 1,100 rpm for 10 min and the supernatant was removed by aspiration. The cell pellet was resuspended in 55 μl of Lysis Buffer (0.4M HCl) and incubated on ice with periodic shaking for 30 minutes. The lysed cells were subjected to centrifugation at 4,200 rpm for 10 min at 4° C. and the supernatant containing acid-soluble proteins was collected and the remainder discarded. The acid-soluble proteins were brought to a neutral pH by the addition of 20 μl of Neutralization Buffer (1 M Sodium phosphate, dibasic (pH 12.5), 2.5 mM DTT and 1 mM PMSF) and the neutralized lysates were analyzed by ELISA.
A 65 μl aliquot of each cell lysate was added to a well of a microwell strip, the microwells were sealed using tape and incubated either at 37° C. for two hours or at 4° C. overnight. After incubation, the tape was removed at the microwells were washed four times using 200 μl of 1× Wash Buffer. To each washed microwell, a 100 μl aliquot of an anti-trimethyl histone H3 Lys27 Detection Antibody solution was added and the microwells were incubated at 37° C. for one hour. The Detection Antibody solution was removed by aspiration and the wells were washed four times each using 200 μl of 1× Wash Buffer.
A 100 μl aliquot of an HRP-linked secondary antibody was added to each well, the wells were sealed with tape and incubated at 37° C. for 30 min. The HRP-linked secondary antibody solution was removed by aspiration and the wells were washed four times using 200 μl of 1× Wash Buffer. A 100 μl aliquot of a TMB substrate was added to each well, the wells were sealed with tape and incubated at 37° C. for 10 min or 25° C. for 30 min. The reaction was stopped by the addition of 100 μl aliquot of a STOP solution and the plate was shaken briefly. The degree of histone H3 trimethylation was determined using a spectrophotometric readout by measuring the absorbance at 450 nm and then calculating the amount of trimethylated histone H3. Key: A=≤250 nM; B=>250 nM-≤500 nM; and C=>500 nM-≤5 μM.
For orientation: In an ELISA, binding on a coated surface is turned into a signal by an enzyme label.

Assay [2] deals with Karpas 422 cells expressing mutant EZH2 (Y641N). The assay can be described thus: Karpas 422 cell viability (Cell Titre Glo) assay. In kind it is cell-based, human. To be noted: CTG viability, time point (Day 4, Day 7 or Day 11) not given, read-out: IC50, Inhibiting Proliferation of Cells Expressing an Activating Mutant Form of EZH2. The method, then: Karpas 422 cell line is a human B cell non-Hodgkin's lymphoma cell line established from a patient having DLBCL. This EZH2 heterozygotic cell line expresses a mutant form of EZH2 enzyme (Y641N) that increases histone H3 methylation and this mutation has been implicated in the tumorgenesis of lymphomas, such as DLBCL.
Karpas 422 cells (PHE cat no., 06101702) were cultured in RPMI medium supplemented with 20% fetal bovine serum and 1% penicillin/1% streptomycin and plated at a density of 1000 cells/90 μl/well in 96 well white assay plates. A dose response curve for compounds of the present invention was determined by adding a 10 μl aliquot of stock solutions of varying concentrations of compounds to the same medium in each well, over a concentration range of 10 μM using 3-fold dilutions to a final concentration of 1.5 nM. The plates were incubated at 37° C. for predetermined time periods, Day 4, Day 7, or Day 11, and the viability of the cells was measured using a CTG assay kit (Cell Titre Glo; Promega cat. no G7573) on Day 4 and Day 7 in accordance with the manufacturer's instructions.
For the viability assay for the Day 11 plates, the plates were subjected to centrifugation at 1100 rpm for five minutes on Day 7 and the supernatant was removed by aspiration. The cells were resuspended in 90 μl aliquot of the appropriate growth medium lacking the compound followed by addition of 10 μl of a 10× stock of the same compound at the same concentration. The viability of the Day 11 cells was measured using the CTG assay kit described above in accordance with the manufacturer's instructions. The IC50 values for each compound at each predetermined time point were calculated using Graph pad PRISM software and the results are shown in Table 7. Key: A=≤250 nM; B=>250 nM-≤500 nM; C=>500 nM-≤5 μM and N.D.=not determined.

Assay [3] has as its target purified human, His-tagged PRC2 complex (Homo sapiens (Human), UniProt O75530). As to the kind of experiment: Hot Spot HMT assay of PRC2 enzymatic activity (tritiated methyl transfer from SAM to core histone). The class given is biochemical. To be noted: 10 nM purified PRC2 complex, 0.05 mg/ml core histone H3, 1 uM 3H-SAM, 1 hr at 30° C. The method, then: Ten-point dose-response curves for compounds of the present invention were determined using a Hot Spot HMT assay (Reaction Biology Corp; see Horiuchi et al., Assay Drug Dev Technol. (2013) 4: 227-236 doi: 10.1089/adt.2012.480). The assay uses purified human, His-tagged PRC2 complex, including N-terminal His-tagged EZH2 enzyme, N-terminal Flag-tagged embryonic ectoderm development protein (EED), N-terminal His-tagged suppressor of zeste 12 (SUZ12), N-terminal His-tagged AEBP2, and N-terminal His-tagged RbAp48. In this assay, the transfer of the tritiated methyl group from radiolabeled S-adenosyl methionine (SAM) to purified core histone protein by EZH2 is quantitated after filtration to determine the activity of the core PRC2 complex in the presence and absence of compound.
Briefly, compounds of the present invention were solubilized in DMSO and a series of 10, three-fold serial dilutions were made for each compound in 15% DMSO. The initial starting concentration for the serial dilutions of each compound was 1.0 μM. Control samples lacking compound, EZH2 enzyme or various reaction components also were prepared and processed in parallel with compound test samples. SAH (S-(5-adenosyl)-L-homocysteine) was used as a positive control for assay validation.
An aliquot of each serial dilution of test compound was added to deep 384 well plate using Acoustic Technology instrument (Echo 550, LabCyte) containing reaction buffer (50 mM Tris-HCl (pH 8.)), 0.01% Brij35, 1 mM EDTA, 1 mM DTT, 1 mM PMSF and 1% DMSO), 10 nM purified PRC2 complex and 0.05 mg/ml core histone H3 in a 5 μl volume. The reaction was mixed gently and then pre-incubated for 20 min at 30° C. The enzymatic reaction was initiated by adding 1 uM S-Adenosyl-L-[methyl ^3H]methionine and incubated for 1 hr at 30° C. After 1 hr, the reaction product was detected using a filter binding method and the amount of tritiated H3 core histone was quantitated using a scintillation counter. The IC50 value for each compound was determined from each 10-point dose-response curve using GraphPad Prism software and the results for exemplary compounds of Formula (I) are shown in Table 5. Key: A=≤250 nM; B=>250 nM—≤500 nM; and C=>500 nM—≤2 μM.

Where [4] appears, read: Homo sapiens, Pfeiffer cells, 96 hours incubation, ELISA.
[5] abbreviates: read-out: IC50, Inhibition of PRC2-mediated Enzymatic Activity.

Like-named read-outs stand apart in the source and are kept apart here. A value given as a limit tells only on which side of the number the result lay.

Sequence of purified human, His-tagged PRC2 complex (Q15910 whole entry): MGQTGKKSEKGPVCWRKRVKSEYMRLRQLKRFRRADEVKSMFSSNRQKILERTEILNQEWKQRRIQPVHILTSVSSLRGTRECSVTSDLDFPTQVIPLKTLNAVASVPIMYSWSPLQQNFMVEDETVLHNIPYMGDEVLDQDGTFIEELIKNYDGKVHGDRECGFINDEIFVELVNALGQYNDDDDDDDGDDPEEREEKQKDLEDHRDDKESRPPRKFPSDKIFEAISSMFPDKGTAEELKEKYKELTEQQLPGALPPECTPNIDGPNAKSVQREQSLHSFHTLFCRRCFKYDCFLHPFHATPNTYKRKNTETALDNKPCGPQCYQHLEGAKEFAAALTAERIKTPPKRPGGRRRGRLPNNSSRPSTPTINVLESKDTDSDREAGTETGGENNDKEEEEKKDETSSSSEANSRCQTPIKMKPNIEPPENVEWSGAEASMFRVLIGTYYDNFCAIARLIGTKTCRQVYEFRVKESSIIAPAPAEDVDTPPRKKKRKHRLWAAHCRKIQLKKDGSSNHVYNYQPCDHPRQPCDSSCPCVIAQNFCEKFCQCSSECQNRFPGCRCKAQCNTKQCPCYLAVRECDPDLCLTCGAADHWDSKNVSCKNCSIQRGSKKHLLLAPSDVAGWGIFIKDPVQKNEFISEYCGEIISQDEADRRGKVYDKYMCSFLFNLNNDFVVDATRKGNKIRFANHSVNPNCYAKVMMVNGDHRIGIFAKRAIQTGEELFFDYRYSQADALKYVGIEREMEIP
Sequence of purified human, His-tagged PRC2 complex (O75530 whole entry): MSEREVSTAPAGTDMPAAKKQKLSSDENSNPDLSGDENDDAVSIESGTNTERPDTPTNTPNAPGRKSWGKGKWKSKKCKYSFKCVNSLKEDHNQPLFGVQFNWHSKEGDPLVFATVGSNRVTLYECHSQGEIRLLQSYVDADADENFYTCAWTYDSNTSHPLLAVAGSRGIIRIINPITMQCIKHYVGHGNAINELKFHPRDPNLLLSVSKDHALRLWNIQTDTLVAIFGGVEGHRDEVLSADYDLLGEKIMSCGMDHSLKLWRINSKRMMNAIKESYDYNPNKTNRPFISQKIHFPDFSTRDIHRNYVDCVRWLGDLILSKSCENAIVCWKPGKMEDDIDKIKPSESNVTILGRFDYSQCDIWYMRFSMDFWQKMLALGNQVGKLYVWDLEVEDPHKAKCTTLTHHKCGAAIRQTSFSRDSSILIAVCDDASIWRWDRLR
Sequence of purified human, His-tagged PRC2 complex (Q15022 whole entry partner): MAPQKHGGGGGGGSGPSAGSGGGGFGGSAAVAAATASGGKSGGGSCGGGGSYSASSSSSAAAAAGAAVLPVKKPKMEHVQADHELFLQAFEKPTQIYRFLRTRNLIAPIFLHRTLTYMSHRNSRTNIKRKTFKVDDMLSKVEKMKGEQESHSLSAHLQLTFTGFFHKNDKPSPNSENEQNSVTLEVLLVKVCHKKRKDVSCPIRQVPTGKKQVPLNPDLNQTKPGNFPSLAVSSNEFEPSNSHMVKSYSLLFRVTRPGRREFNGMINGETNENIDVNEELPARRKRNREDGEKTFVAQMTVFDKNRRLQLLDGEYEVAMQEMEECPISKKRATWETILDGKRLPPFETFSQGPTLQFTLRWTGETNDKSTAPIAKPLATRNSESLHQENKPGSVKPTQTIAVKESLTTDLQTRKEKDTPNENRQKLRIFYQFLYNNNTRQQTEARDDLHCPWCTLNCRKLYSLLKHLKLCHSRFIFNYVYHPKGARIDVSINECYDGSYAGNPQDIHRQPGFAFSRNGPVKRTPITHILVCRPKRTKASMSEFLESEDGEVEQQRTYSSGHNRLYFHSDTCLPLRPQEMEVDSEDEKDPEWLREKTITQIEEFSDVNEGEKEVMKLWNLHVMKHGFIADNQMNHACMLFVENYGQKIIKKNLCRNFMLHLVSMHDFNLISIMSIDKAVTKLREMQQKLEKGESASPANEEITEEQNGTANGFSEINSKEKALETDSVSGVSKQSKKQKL
Sequence of purified human, His-tagged PRC2 complex (Q6ZN18 whole entry partner): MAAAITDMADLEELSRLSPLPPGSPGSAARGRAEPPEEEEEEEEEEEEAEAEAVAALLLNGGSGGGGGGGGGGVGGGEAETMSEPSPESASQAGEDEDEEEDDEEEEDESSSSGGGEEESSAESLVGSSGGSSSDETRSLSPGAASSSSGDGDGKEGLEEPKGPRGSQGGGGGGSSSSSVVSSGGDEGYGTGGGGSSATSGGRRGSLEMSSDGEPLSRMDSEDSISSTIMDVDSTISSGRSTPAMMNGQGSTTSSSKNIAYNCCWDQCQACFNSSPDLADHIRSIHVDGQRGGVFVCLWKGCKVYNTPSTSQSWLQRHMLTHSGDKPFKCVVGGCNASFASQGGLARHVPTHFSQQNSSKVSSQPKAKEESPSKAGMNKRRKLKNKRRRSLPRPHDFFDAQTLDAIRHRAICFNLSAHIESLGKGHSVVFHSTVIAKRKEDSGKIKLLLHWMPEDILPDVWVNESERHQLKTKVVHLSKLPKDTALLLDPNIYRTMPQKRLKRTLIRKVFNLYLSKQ
Sequence of purified human, His-tagged PRC2 complex (Q09028 whole entry partner): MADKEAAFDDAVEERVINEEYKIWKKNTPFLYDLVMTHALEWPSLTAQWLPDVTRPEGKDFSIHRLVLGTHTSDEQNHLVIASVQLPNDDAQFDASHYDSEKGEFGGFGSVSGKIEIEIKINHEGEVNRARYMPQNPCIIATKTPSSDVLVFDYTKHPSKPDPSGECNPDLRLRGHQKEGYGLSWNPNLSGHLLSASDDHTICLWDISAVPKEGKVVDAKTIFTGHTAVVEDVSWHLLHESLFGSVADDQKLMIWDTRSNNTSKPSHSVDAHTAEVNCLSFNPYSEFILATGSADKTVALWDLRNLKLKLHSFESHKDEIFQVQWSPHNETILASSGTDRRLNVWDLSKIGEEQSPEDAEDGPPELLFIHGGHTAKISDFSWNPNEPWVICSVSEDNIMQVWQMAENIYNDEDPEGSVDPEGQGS

`Cc1cccc(-c2cnc(NCc3c(F)ccc4c3CCO4)n3cc(CN)nc23)c1` [Example 21, 2-(aminomethyl)-N-((5-fluoro-2,3-dihydrobenzofuran-4-yl)methyl)-8-(m-tolyl)imidazo[1,2-c]pyrimidin-5-amine]: the values for the IC50 in assay [1] (setting [4]), in assay [2] (Homo sapiens) and in assay [3] (setting [5]) were 500 to 5000 nM, 500 to 5000 nM and 500 to 2000 nM, respectively.
Turning to `NCc1cn2c(NCc3c(F)ccc4c3CCO4)ncc(-c3ccccc3Cl)c2n1` [Example 22, 2-(aminomethyl)-8-(2-chlorophenyl)-N-((5-fluoro-2,3-dihydrobenzofuran-4-yl)methyl)imidazo[1,2-c]pyrimidin-5-amine], the IC50 is 500 to 5000 nM in assay [1] (setting [4]), 500 to 5000 nM in assay [2] (Homo sapiens) and 500 to 2000 nM in assay [3] (setting [5]).
In the case of `Cc1cc(-c2cnc(NCc3cccc4c3CCO4)n3cc(CN)nc23)n(C)n1` [Example 23, 2-(aminomethyl)-N-((2,3-dihydrobenzofuran-4-yl)methyl)-8-(1,3-dimethyl-1H-pyrazol-5-yl)imidazo[1,2-c]pyrimidin-5-amine], the IC50 in assay [1] (setting [4]) is 500 to 5000 nM; in assay [2] (Homo sapiens) it was 500 to 5000 nM; in assay [3] (setting [5]), 500 to 2000 nM.
Regarding `Cc1cc(-c2cnc(NCc3c(F)ccc4occc34)n3cc(CN)nc23)n(C)n1` [Example 24], the IC50 in assay [1] (setting [4]) lay in the range of 250 to 500 nM; in assay [2] (Homo sapiens), 250 to 500 nM; in assay [3] (setting [5]) it was 500 to 2000 nM.
In the case of `Cc1cc(-c2cnc(NCc3c(F)ccc4c3CCO4)n3cc(CNCCS(=O)(=O)F)nc23)n(C)n1` [Example 27, 2-(((8-(1,3-dimethyl-1H-pyrazol-5-yl)-5-(((5-fluoro-2,3-dihydrobenzofuran-4-yl)methyl)amino)imidazo[1,2-c]pyrimidin-2-yl)methyl)amino)ethane-1-sulfonyl fluoride], the IC50 fell in the range of 500 to 5000 nM in assay [1] (Homo sapiens, Pfeiffer, 96 h); 500 to 5000 nM in assay [2] (Homo sapiens); 500 to 2000 nM in assay [3] (IC50, Inhibition of PRC2-mediated Enzymatic Activity).
Take `Cc1cc(-c2cnc(NCc3c(F)ccc4c3CCO4)n3cc(CN(CCS(=O)(=O)F)CCS(=O)(=O)F)nc23)n(C)n1` [Example 28, 2,2′-(((8-(1,3-dimethyl-1H-pyrazol-5-yl)-5-(((5-fluoro-2,3-dihydrobenzofuran-4-yl)methyl)amino)imidazo[1,2-c]pyrimidin-2-yl)methyl)azanediyl)bis(ethane-1-sulfonylfluoride)]: the IC50 lay within 500 to 5000 nM in assay [1] (Pfeiffer cells, 96 hours incubation, ELISA); 500 to 5000 nM in assay [2]; 500 to 2000 nM in assay [3] (setting [5]).
Regarding `Cn1nccc1-c1cnc(NCc2c(F)ccc3c2CCO3)n2cc(CN3CCC3)nc12` [Example 29, 2-(azetidin-1-ylmethyl)-N-((5-fluoro-2,3-dihydrobenzofuran-4-yl)methyl)-8-(1-methyl-1H-pyrazol-5-yl)imidazo[1,2-c]pyrimidin-5-amine], the IC50 in assay [1] (setting [4]) fell in the range of 500 to 5000 nM; in assay [2] (Homo sapiens) it was 500 to 5000 nM; in assay [3] (setting [5]) it was 500 to 2000 nM.
For the compound `Cc1cc(-c2cnc(NCc3c(F)ccc4c3CCO4)n3cc(CNC4CCC4)nc23)n(C)n1` [Example 30, 2-((cyclobutylamino)methyl)-8-(1,3-dimethyl-1H-pyrazol-5-yl)-N-((5-fluoro-2,3-dihydrobenzofuran-4-yl)methyl)imidazo[1,2-c]pyrimidin-5-amine], the figures for the IC50 in assay [1] (setting [4]), in assay [2] (Homo sapiens) and in assay [3] (setting [5]) were 250 to 500 nM, less than 250 nM and 500 to 2000 nM, respectively.
Turning to `Cc1cc(-c2cnc(NCc3c(F)ccc4c3CCO4)n3cc(CN4CC(O)C4)nc23)n(C)n1` [Example 31, 1-((8-(1,3-dimethyl-1H-pyrazol-5-yl)-5-(((5-fluoro-2,3-dihydrobenzofuran-4-yl)methyl)amino)imidazo[1,2-c]pyrimidin-2-yl)methyl)azetidin-3-ol], the IC50 in assay [1] (setting [4]) is 500 to 5000 nM; in assay [2] (Homo sapiens), 500 to 5000 nM; in assay [3] (setting [5]), 500 to 2000 nM.
Take `Cc1cc(-c2cnc(NCc3c(F)ccc4c3CCO4)n3cc(CNCc4ccccc4)nc23)n(C)n1` [Example 32, 2-((benzylamino)methyl)-8-(1,3-dimethyl-1H-pyrazol-5-yl)-N-((5-fluoro-2,3-dihydrobenzofuran-4-yl)methyl)imidazo[1,2-c]pyrimidin-5-amine]: the IC50 in assay [1] (setting [4]) was 250 to 500 nM; in assay [2] (Homo sapiens) it was less than 250 nM; in assay [3] (setting [5]) it was 500 to 2000 nM.
